Laboratory results reported in patent publication US11814366B2, “Antiviral compounds and use thereof” (UNIVERSITA DEGLI STUDI DI SIENA, priority 2018, dated 2023).
“Also recorded” adds a separate entry of the source.

Columns and labels:
Cytotoxicity, XTT test = details: human
VSV = test: microbe, parasite or virus in culture; type: cell-based, Vesicular Stomatitis Virus (VSV); details: Vesicular stomatitis virus, Vero
HSV-2 [1] = test: Entry of virus into cell (ELISA, immunofluorescence); type: cell-based, Herpes 2 virus (HSV-2); details: 10 μM, HSV-2, Vero cells
Procedure: Cells were plated in 96 well plates. The following day 10 μM of compound 15b in DMSO and HSV-2 (MOI 10 pfu/cell) were incubated for 1 h at 37° C. and subsequently added on cells for 1 hour at 4° C. Cells were then washed and shifted at 37° C. for 1 h and 30 minutes. Cells were then fixed with 4% paraformaldehyde, air dried and permeabilized with PBS-TRITON (0.5%) and then the same protocol described for binding was followed.
Vero cells were pre-plated on coverslips and the following day the binding or entry protocol described above was applied. Cells were then fixed with 4% paraformaldehyde, air dried and for entry protocol permeabilized with PBS-TRITON. Blocking was performed with PBS-BSA1% for 1 h at room temperature and subsequently HSV-2 polyclonal antibody (B011402-2 Dako) (1:250) was added on cells, after 1 hour at 37° C. the inoculum was removed and coverslips were washed with PBS-TWEEN for 3 times. Rhodamine conjugated anti-rabbit IgG (Santa Cruz) was then added on cells for 1 h at 37° C. following 3 washes coverslips were mounted on microscope glasses and observed with Zeiss LSM510 fluorescence microscope (Zeiss, Oberkochen, Germany) and images were acquired (FIG. 3A, 3B).

[2] = Cell viability (MTS) assay, Hep-2 cells; type: cell-based; details: human, conditions of the RSV assay
Procedure: (§1) Cell viability was measured using the MITS [3-(4,5-dimethylthiazol-2-yl)-5-(3 carboxy methoxy phenyl)-2-(4-sulfophenyl)-2H-tetrazolium] assay. Cell cultures were seeded in 96-well plates and were incubated with different concentrations of compounds of the invention in triplicate under the same experimental conditions described for the antiviral assays. Cell viability was determined using the CellTiter 96 Proliferation Assay Kit (Promega, Madison, WI, USA) according to the manufacturer's instructions. Absorbances were measured using a Microplate Reader (Model 680, BIORAD) at 490 nm. The effect on cell viability at different concentrations of the compound was expressed as a percentage, by comparing absorbances of treated cells with those of cells incubated with culture medium and equal volumes of vehicle. The 50% cytotoxic concentrations (CC50) and 95% confidence intervals (CIs) were determined using Prism software (Graph-Pad Software, San Diego, CA).

ZIKAV = test: ZIKA virus plaque reduction assay on Vero cells; type: cell-based, Zika virus (PRVABC59)
HSV-2 [3] = test: HSV-2 plaque reduction assay on Vero cells; type: cell-based, Herpes 2 virus (HSV-2)
[4] = Cell viability (MTS) assay, HeLa cells; type: cell-based, human; details: human, HeLa cells; conditions of the HPV-16 assay
Procedure: as §1

HeLa cells = test: Cell viability (MTS) assay, HeLa cells; type: cell-based, human; details: conditions of the Ad5 assay
Procedure: as §1

HSV-2 [5] = test: Post treatment assay, HSV-2 infected Vero cells; type: cell-based, Herpes 2 virus (HSV-2); details: Human alphaherpesvirus 2, Vero, read-out: antiviral activity value when added post-infection
Procedure: Supernatants and cells were harvested and cell free virus infectivity titers were determined in duplicate by plaque assay in Vero cell monolayers. Percent inhibition was determined by comparing the titer measured in the presence of the compounds to that measured in untreated wells.

[6] = Cell viability (MTS) assay, Huh-7 cells; type: cell-based; details: human, conditions of the DENV-2 assay (Table 6)
Procedure: as §1

HSV-2 Acy R = test: microbe, parasite or virus in culture; type: cell-based, HSV-2 acyclovir resistant; details: Human alphaherpesvirus 2, Vero
in vitro = details: dog
HSV-2 [7] = test: Pretreatment assay, Vero cells treated before HSV-2; type: cell-based, Herpes 2 virus (HSV-2); details: Vero cells pretreated 2 h at 37° C., then HSV-2
Procedure: Vero Cells were pretreated for 2 h at 37° C. with increasing concentrations of compound 15b in DMSO the inocula were then removed cells washed and HSV-2 was added on cells for 2 h at 37° C. Subsequently the same protocol described above for the evaluation of HSV inhibition was followed.

DENV-2 = test: DENV plaque reduction assay on Huh-7 cells; type: cell-based, Dengue virus
Procedure: The effect of compounds on DENV infection was evaluated by plaque reduction assay. Huh-7 cells were pre-plated 24 h in advance in 24-well plates at a density of 10^5 cells. Concentrations of compounds ranging from 50 μM to 0.0001 μM in DMSO were mixed with DENV-2 (MOI 0.01 pfu/cell) and incubated for 1 hour at 37° C. The mixtures were subsequently added to the cells, which were then incubated at 37° C. for 2 h. The virus inoculum was then removed and the cells washed and overlaid with a medium containing 1.2% methylcellulose (Sigma). After further incubation at 37° C. for 72 h cells were fixed and stained with 0.1% crystal violet in 20% ethanol and viral plaques counted. The effective concentration producing 50% reduction in plaque formation (EC50) were determined using Prism software by comparing drug-treated wells with wells treated with medium and DMSO. The selectivity index (SI) was calculated by dividing the CC50 by the EC50 value.

HCMV = HCMV inhibition assay on HELF cells; type: cell-based, HCMV strain Towne; details: Human betaherpesvirus 5, HELF
Procedure: HELF cells were pre-plated in a 96-well plate. The following day concentrations of compounds ranging from 50 μM to 0.0001 μM in DMSO were mixed with HCMV (MOI 0.005 pfu/cell) and incubated for 1 hour at 37° C. The mixtures were subsequently added to the cells, which were then incubated at 37° C. for 3 h; monolayers were then washed and overlaid with 1.2% methylcellulose medium supplemented with 3% FCS and 1 mM sodium pyruvate. After five days incubation, cells were observed under an inverted Zeiss LSM510 fluorescence microscope (Zeiss, Oberkochen, Germany) and the EC50 were calculated by comparing GFP positive cells in treated and untreated wells. The effective concentration producing 50% reduction in plaque formation (EC50) was determined using Prism software. The selectivity index (SI) was calculated by dividing the CC50 by the EC50 value.

HSV-1 = HSV-1 plaque reduction assay on Vero cells; type: cell-based, Herpes 1 virus (HSV-1); details: Human alphaherpesvirus 1, Vero

`O=C1NC(=S)N(CCc2ccccc2)C(=O)/C1=C\c1ccc(-c2ccc(C(=O)O)c(O)c2)[nH]1` [Compound 15b, (Z)-4-(5-((4,6-dioxo-1-phenethyl-2-thioxotetrahydropyrimidin-5(2H)-ylidene)methyl)-1H-pyrrol-2-yl)-2-hydroxybenzoic Acid] showed a CC50 (Cytotoxicity, XTT test) greater than 20000 nM, an EC50 (VSV) of 144 nM and an EC90 (VSV) of 2170 nM. The “percentage of internalized virus” value (HSV-2 [1]) was “decreased; also recorded: lower”, the CC50 [2] was 241000 nM and the SI selectivity index (ZIKAV; ZIKAV, CC50 divided by EC50) was greater than 2563. The EC50 (ZIKAV; Zika virus, Vero, ZIKAV infected cells) was 43.3 nM, the SI selectivity index (HSV-2 [3]; HSV-2, CC50 divided by EC50) was greater than 3452 and the EC90 (HSV-2 [3]; Human alphaherpesvirus 2, Vero, HSV-2 infected cells, 90% effective concentration) was 1190 nM. For the same compound, the EC50 (HSV-2 [3]; Human alphaherpesvirus 2, Vero, HSV-2 infected cells, compound mixed with virus 1 hour at 37° C.) was 86.9 nM, the CC50 [4] was greater than 300000 nM and the CC50 (HeLa cells) was greater than 300000 nM. It also gave an EC50 (HSV-2 [5]) of 775 nM, a CC50 [6] of 7900 nM and an EC50 (HSV-2 Acy R) of 83.4 nM. For the same compound, the EC90 (HSV-2 Acy R) was 420 nM, the CC50 (in vitro) was greater than 300000 nM and the “antiviral activity in pre-treatment assay” value (HSV-2 [7]) was “inactive”. The SI selectivity index (DENV-2; DENV-2, CC50 divided by EC50) was 5.6, the EC50 (DENV-2; Dengue virus, DENV2, Huh-7, DENV-2 infected cells) was 1400 nM and the EC50 (HCMV) was 118 nM. For the same compound, the EC90 (HCMV) was 772 nM, the EC50 (HSV-1) was 454 nM and the EC90 (HSV-1) was 3720 nM.
